{"source": "paper PMC11633415", "about": "“Investigation of the inhibitory properties of azo-dyes on chorismate synthase from Paracoccidioides brasiliensis” (Journal of Enzyme Inhibition and Medicinal Chemistry, 2024)", "key": {"[1]": {"target": "CS from Neurospora crassa", "set-up": "method as in earlier work", "conditions": "competitive inhibitor of CS from Neurospora crassa ref 9; cited from earlier work"}, "CS": {"tested_on": "CS", "set-up": "method as in PMID 7559411", "conditions": "very slow substrate of CS ref 10; cited from earlier work"}, "[2]": {"tested_on": "CS from Streptococcus pneumoniae (SpCS)", "set-up": "method as in PMID 12565943", "conditions": "SpCS ref 12; cited from earlier work"}, "PbCS [3]": {"target": "T1, PbCS (Paracoccidioides brasiliensis, UniProt C1GBW5)", "T1 sequence (C1GBW5 entry or part of it)": "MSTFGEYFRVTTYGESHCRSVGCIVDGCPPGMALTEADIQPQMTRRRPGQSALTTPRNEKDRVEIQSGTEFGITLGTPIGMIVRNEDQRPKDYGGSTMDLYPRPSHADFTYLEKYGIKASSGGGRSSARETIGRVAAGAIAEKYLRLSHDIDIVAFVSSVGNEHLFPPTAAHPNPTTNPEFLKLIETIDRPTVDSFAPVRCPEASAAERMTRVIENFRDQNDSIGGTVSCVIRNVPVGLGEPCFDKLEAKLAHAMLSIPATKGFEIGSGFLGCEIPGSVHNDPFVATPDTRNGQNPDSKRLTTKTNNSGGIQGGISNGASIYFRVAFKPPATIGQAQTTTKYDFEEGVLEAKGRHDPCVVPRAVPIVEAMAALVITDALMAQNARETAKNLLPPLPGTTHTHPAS", "set-up": "method as in PMID 30348661", "conditions": "PbCS ref 13, cited from earlier work"}, "PbCS [4]": {"target": "T1, PbCS", "set-up": "method as in PMID 30348661"}, "CS from N. crassa": {"target": "CS from N. crassa", "conditions": "CS from N. crassa ref 30; cited from earlier work"}, "chorismate synthase (CS) [5]": {"target": "chorismate synthase (CS)", "experiment": "Spectrophotometric titration, CS from Solanum lycopersicum", "format": "binding", "conditions": "CS from Solanum lycopersicum (plant)"}, "chorismate synthase (CS) [6]": {"target": "T2, chorismate synthase (CS) (Trichormus variabilis, UniProt Q3MFM3)", "T2 construct": "made in house; host or cells: E. coli", "T2 sequence (Q3MFM3 whole entry)": "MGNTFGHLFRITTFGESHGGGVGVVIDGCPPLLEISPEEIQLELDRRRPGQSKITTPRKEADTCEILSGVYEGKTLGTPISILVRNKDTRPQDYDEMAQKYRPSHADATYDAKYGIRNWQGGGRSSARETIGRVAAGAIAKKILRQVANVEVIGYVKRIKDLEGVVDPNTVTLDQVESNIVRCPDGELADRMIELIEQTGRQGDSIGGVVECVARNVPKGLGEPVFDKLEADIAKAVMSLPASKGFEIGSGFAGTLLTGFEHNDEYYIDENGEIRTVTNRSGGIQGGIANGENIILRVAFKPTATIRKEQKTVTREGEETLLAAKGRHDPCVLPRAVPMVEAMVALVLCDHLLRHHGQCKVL", "experiment": "Spectrophotometric titration, CS from Anabaena variabilis", "format": "binding", "conditions": "CS from Anabaena variabilis (cyanobacterium)"}, "chorismate synthase (CS) [7]": {"target": "chorismate synthase (CS) (Methanothermobacter thermautotrophicus, UniProt O26843)", "sequence (O26843 whole entry)": "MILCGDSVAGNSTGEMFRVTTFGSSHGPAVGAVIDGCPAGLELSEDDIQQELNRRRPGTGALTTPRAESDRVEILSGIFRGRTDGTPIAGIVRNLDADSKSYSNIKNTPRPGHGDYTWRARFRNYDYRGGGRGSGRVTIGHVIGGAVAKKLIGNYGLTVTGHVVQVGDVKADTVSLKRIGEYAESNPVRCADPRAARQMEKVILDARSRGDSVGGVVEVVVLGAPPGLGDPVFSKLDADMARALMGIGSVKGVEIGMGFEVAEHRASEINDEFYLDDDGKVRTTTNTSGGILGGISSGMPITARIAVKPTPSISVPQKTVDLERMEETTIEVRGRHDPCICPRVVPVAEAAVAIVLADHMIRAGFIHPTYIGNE", "experiment": "Spectrophotometric titration, CS from Methanobacterium thermoautotrophicum", "format": "binding"}, "chorismate synthase (CS) [8]": {"target": "T3, chorismate synthase (CS) (Aquifex aeolicus, UniProt O66493)", "T3 construct": "made in house; host or cells: E. coli", "T3 sequence (O66493 whole entry)": "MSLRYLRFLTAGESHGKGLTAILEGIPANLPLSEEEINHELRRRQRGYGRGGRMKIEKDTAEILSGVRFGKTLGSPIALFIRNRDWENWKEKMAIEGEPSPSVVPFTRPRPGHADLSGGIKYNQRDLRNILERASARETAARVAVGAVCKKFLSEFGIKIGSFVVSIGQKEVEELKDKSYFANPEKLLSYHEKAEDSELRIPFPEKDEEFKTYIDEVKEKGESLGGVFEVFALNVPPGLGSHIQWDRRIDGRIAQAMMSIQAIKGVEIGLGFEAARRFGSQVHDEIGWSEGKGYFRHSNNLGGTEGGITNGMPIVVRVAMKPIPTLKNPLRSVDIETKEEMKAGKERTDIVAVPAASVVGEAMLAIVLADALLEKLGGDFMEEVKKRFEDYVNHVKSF", "experiment": "Spectrophotometric titration, CS from Aquifex aeolicus", "format": "binding"}, "PbCS [9]": {"target": "T1, PbCS", "experiment": "Isothermal titration calorimetry (ITC)", "conditions": "single site binding model, 25 °C, pH 8, triplicates, read-out: dissociation constant by ITC", "method": "Isothermal titration calorimetry (ITC) was performed on a MicroCal PEAQ-ITC. All ITC experiments were conducted in storage buffer (50 mM NaH2PO4, 150 mM NaCl, pH 8) at 25 °C and a stirring rate of 750 rpm. Titration experiments consisted of 13 injections (first injection: 0.4 µL; duration time: 0.8 s; spacing time: 300 s; 2nd–13th injection: 3 µL; duration time: 6 s; spacing time: 150 s) and were performed in triplicates. The azo-dye PH011669 (500 µM) was loaded into the injection syringe and titrated into the sample cell containing PbCS (25 µM); the reference cell was filled with degassed ddH2O. Dissociation constants were obtained with the MicroCal PEAQ-ITC Analysis Software (Malvern) using the “one set of sites fitting” model."}, "chorismate synthase (CS) [10]": {"target": "chorismate synthase (CS) (Botrytis cinerea, UniProt A0A384JF70)", "experiment": "Spectrophotometric titration, CS from Botrytis fuckeliana", "format": "binding", "conditions": "CS from Botrytis fuckeliana (fungus)"}, "chorismate synthase (CS) [11]": {"target": "T4, chorismate synthase (CS) (Capnoides sempervirens, UniProt P27793)", "T4 construct": "made in house; host or cells: E. coli", "T4 sequence (P27793 58-447)": "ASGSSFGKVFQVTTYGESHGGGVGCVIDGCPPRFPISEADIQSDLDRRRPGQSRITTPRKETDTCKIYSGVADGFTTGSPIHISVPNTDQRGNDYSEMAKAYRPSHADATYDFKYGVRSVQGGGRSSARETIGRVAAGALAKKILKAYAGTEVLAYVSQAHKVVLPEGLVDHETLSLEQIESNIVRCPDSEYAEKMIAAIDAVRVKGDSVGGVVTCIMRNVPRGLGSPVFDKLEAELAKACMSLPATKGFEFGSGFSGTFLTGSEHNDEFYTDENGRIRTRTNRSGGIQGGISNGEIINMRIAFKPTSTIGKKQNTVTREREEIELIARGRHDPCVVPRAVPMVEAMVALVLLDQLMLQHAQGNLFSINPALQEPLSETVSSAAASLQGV", "experiment": "Spectrophotometric titration, CS from Corydalis sempervirens", "format": "binding", "conditions": "CS from Corydalis sempervirens (plant)"}, "chorismate synthase (CS) [12]": {"target": "T5, chorismate synthase (CS) (Saccharomyces cerevisiae, UniProt P28777)", "T5 construct": "made in house; host or cells: E. coli", "experiment": "Spectrophotometric titration, CS from Saccharomyces cerevisiae", "format": "binding", "conditions": "CS from Saccharomyces cerevisiae (yeast)"}, "chorismate synthase (CS) [13]": {"target": "chorismate synthase (CS) (Candida albicans, UniProt A0A1D8PTK1)", "sequence (A0A1D8PTK1 entry or part of it)": "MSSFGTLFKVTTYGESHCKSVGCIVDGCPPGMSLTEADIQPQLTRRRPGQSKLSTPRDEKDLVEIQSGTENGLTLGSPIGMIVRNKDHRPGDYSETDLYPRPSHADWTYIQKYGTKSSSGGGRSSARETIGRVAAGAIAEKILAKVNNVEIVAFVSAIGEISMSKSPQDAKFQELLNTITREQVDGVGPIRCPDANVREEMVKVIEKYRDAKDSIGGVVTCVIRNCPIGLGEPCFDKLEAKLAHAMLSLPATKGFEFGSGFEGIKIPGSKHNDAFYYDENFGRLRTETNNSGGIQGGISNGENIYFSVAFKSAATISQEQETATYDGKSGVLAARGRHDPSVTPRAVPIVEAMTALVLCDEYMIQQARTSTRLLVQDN", "experiment": "Spectrophotometric titration, CS from Candida albicans", "format": "binding", "conditions": "CS from Candida albicans (fungus)"}, "chorismate synthase (CS) [14]": {"target": "chorismate synthase (CS) (Tetrahymena thermophila, UniProt Q23FV7)", "sequence (Q23FV7 entry or part of it)": "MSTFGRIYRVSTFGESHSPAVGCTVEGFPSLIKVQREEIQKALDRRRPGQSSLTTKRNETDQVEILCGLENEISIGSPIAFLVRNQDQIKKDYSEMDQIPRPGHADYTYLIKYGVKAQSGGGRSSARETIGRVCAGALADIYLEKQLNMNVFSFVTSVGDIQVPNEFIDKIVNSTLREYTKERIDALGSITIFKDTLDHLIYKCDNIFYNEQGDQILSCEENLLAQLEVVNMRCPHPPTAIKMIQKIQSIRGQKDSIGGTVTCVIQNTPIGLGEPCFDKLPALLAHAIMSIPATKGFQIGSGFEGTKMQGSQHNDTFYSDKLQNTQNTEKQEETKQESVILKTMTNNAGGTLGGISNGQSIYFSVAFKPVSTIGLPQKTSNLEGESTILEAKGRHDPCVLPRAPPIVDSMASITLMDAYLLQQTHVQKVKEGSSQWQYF", "experiment": "Spectrophotometric titration, CS from Tetrahymena thermophila", "format": "binding"}, "[15]": {"target": "chorismate synthase from Paracoccidioides brasiliensis (PbCS) (Paracoccidioides brasiliensis, UniProt C1GBW5)", "sequence (C1GBW5 entry or part of it)": "as the sequence (C1GBW5 entry or part of it) above", "experiment": "Spectrophotometric titration / binding assay, PbCS", "method": "(§1) For the binding studies, PH011669 was dissolved in 50 mM NaH2PO4 and 150 mM NaCl at pH 8, diluted to a final concentration of approximately 10 µM (A580nm ∼0.25; 800 µL), and transferred to a quartz cuvette (with 800 µL of buffer in the reference cuvette). After recording an initial UV-visible absorption spectrum between 300 and 800 nm, 10 µL aliquots of PbCS (∼55 µM) were added, and spectral changes were monitored after each addition. To quantify the binding affinity of PH011669 to PbCS, we plotted the relative absorption changes at 510 nm as a function of the protein concentration in the cuvette[17]."}, "chorismate synthase (CS) [16]": {"target": "T6, chorismate synthase (CS) (Escherichia coli, UniProt P12008)", "T6 construct": "made in house; host or cells: E. coli", "experiment": "Spectrophotometric titration, CS from Escherichia coli", "format": "binding"}, "chorismate synthase (CS) [17]": {"target": "T7, chorismate synthase (CS) (Thermotoga maritima, UniProt Q9WYI2)", "T7 construct": "made in house; host or cells: E. coli", "T7 sequence (Q9WYI2 whole entry)": "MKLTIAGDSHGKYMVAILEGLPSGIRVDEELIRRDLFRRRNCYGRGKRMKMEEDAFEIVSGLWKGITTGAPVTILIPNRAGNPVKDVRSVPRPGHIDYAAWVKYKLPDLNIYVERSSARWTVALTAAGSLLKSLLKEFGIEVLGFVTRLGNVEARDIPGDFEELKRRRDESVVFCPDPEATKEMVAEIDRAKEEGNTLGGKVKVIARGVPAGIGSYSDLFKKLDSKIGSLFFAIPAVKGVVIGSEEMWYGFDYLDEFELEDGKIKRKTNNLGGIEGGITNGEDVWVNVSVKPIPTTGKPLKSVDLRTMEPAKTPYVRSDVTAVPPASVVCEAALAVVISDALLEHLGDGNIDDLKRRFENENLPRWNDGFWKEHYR", "experiment": "Spectrophotometric titration, CS from Thermotoga marítima", "format": "binding"}, "chorismate synthase (CS) [18]": {"target": "chorismate synthase (CS) (Toxoplasma gondii, UniProt O02607)", "sequence (O02607 whole entry)": "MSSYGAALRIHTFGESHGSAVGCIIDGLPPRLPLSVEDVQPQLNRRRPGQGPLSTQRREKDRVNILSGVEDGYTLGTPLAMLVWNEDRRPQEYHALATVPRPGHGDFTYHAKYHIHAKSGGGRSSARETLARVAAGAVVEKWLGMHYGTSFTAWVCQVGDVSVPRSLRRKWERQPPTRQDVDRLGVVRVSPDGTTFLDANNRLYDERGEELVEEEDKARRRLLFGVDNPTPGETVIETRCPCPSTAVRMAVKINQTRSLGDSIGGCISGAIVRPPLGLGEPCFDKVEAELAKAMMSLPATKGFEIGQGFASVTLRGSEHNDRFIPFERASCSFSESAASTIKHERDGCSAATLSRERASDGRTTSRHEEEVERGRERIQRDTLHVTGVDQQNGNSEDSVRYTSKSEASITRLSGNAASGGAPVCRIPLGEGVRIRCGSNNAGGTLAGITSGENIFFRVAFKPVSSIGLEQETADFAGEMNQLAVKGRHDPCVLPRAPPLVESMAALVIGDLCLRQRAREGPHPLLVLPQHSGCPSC", "experiment": "Spectrophotometric titration, CS from Toxoplasmodium gondii", "format": "binding", "conditions": "CS from Toxoplasmodium gondii (protozoon)"}, "PbCS [19]": {"target": "T1, PbCS", "experiment": "Inhibition assay, CS reaction coupled with anthranilate synthase reaction", "format": "biochemical", "conditions": "80 μM EPSP, 4 μM PbCS, 37 °C, Hill fit", "method": "The influence of PH011669 on the activity of PbCS was tested by forward coupling the CS reaction with the anthranilate synthase reaction. The final reaction solution contained 80 μM EPSP, 4 μM PbCS, 7 µM YcnD, 20 μM anthranilate synthase, 4 mM MgSO4, 10 mM L-glutamine (L-Gln), 30 mM (NH4)2SO4, 1 mM dithiothreitol (DTT) and different concentrations of the inhibitor (0.1–250 µM). The assay was prepared in 10 mM potassium phosphate at pH 7.6 and pipetted into a 96-well plate. The reaction was started by the addition of 500 µM NADPH. PbCS activity could be studied spectrofluorometrically at 37 °C by following the increase in the fluorescence intensity at 390 nm (λex = 340 nm) for 5 min, which correlates with the amount of anthranilate formed in the course of the reaction. The slopes of the initial velocities were determined and plotted as a function of the log of the corresponding PH011669 concentration (triplicates were determined).\nTo test the inhibitory effect of PH011669 on the activity of CS, we used a coupled assay involving EPSP, CS, YcnD and anthranilate synthase. Our inhibition assay has been used to determine the ability of a drug to reduce the activity of the enzyme. The resulting IC50 value gives the concentration of a drug required for 50% inhibition of the enzymatic activity. […]"}, "chorismate synthase (CS) [20]": {"target": "T8, chorismate synthase (CS) (Neurospora crassa, UniProt Q12640)", "T8 construct": "made in house; host or cells: E. coli", "T8 sequence (Q12640 whole entry)": "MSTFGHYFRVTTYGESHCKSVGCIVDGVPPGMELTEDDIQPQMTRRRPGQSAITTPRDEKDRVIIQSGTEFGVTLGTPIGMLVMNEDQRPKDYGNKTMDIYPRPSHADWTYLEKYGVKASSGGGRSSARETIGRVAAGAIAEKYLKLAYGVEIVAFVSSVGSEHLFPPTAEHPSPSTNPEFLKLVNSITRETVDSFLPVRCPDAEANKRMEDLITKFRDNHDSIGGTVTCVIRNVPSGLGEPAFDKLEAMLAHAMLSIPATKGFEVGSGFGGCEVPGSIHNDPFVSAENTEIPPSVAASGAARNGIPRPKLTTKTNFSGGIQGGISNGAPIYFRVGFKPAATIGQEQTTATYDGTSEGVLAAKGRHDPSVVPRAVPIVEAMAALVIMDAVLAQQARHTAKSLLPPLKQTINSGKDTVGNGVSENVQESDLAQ", "experiment": "Spectrophotometric titration, CS from Neurospora crassa", "format": "binding", "conditions": "CS from Neurospora crassa (fungus)", "method": "as §1"}, "chorismate synthase (CS) [21]": {"target": "chorismate synthase (CS) (Staphylococcus aureus, UniProt Q2FYG9)", "sequence (Q2FYG9 whole entry)": "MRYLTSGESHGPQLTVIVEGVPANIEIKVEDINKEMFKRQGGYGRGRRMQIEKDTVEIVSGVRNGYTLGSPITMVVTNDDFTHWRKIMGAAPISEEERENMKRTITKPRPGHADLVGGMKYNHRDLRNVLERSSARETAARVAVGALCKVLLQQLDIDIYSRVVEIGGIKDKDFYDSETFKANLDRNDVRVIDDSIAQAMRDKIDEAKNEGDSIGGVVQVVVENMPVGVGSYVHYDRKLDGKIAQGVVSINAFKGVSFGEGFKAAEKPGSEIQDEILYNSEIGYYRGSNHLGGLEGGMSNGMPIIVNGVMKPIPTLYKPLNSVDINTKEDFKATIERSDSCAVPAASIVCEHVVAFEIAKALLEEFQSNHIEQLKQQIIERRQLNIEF", "experiment": "Spectrophotometric titration, CS from Staphylococcus aureus", "format": "binding"}}, "note": "Read-outs that look alike come from different tables or passages of the source.", "data": [{"compound": "C=C(OC1C(O)C(OP(=O)(O)O)C=C(C(=O)O)[C@H]1F)C(=O)O", "note": "(stereo partly drawn) [6(R)-6-fluoro-EPSP, (6R)-6-fluoro-5-enolpyruvylshikimate 3-phosphate]", "values": [{"measurement": "Ki", "setting": "[1]", "result": "3000 ± 300", "unit": "nM"}]}, {"compound": "C=C(OC1C(O)C(OP(=O)(O)O)C=C(C(=O)O)[C@@H]1F)C(=O)O", "note": "(stereo partly drawn) [6(S)-6-fluoro-EPSP, (6S)-6-fluoro-5-enolpyruvylshikimate-3-phosphate]", "values": [{"measurement": "slower turnover than EPSP", "setting": "CS", "result": 200, "unit": "fold"}]}, {"compound": "CCN(CC)c1ccc(/C=C2\\Oc3c(ccc(O)c3O)C2=O)cc1", "note": "[BF1]", "values": [{"measurement": "IC50", "setting": "[2]", "result": 8, "unit": "µM"}]}, {"compound": "CCCCCOc1ccc(/C=C2\\Oc3c(ccc(O)c3O)C2=O)c(O)c1", "note": "[BF2]", "values": [{"measurement": "IC50", "setting": "[2]", "result": 0.22, "unit": "µM"}]}, {"compound": "O=C(O)[C@H]1Nc2c(cccc2[N+](=O)[O-])[C@@H]2[C@H](Cl)[C@@H](Sc3ccccc3[N+](=O)[O-])C[C@@H]21", "note": "[CP1, (1S,2S,3aS,4S,9bR)-1-chloro-6-nitro-2-(2-nitrophenyl)sulfanyl-2,3,3a,4,5,9b-hexahydro-1H-cyclopenta[c]quinoline-4-carboxylic acid]", "values": [{"measurement": "IC50", "setting": "PbCS [3]", "result": 47, "unit": "µM"}, {"measurement": "Kd", "setting": "PbCS [4]; read-out: dissociation constant; PbCS ref 13; cited from earlier work", "result": "64 ± 1", "unit": "µM"}]}, {"compound": "O=[N+]([O-])c1ccc(/N=N/c2c(S(=O)(=O)O)cc3cc(S(=O)(=O)O)ccc3c2O)c([N+](=O)[O-])c1", "note": "[CaCS02, 2-(2,4-dinitrophenylazo)-1-hydroxynaphthalene-3,6-disulfonic acid (nitrazine yellow)]", "values": [{"measurement": "IC50", "setting": "PbCS [3]; read-out: IC50", "result": 29, "unit": "µM"}, {"measurement": "Kd", "setting": "PbCS [4]; PbCS ref 13; read-out: dissociation constant; cited from earlier work", "result": 20, "unit": "µM"}]}, {"compound": "C=C(OC1CC(C(=O)O)=CC(OP(=O)(O)O)C1O)C(=O)O", "note": "(stereo not drawn) [EPSP, 5-enolpyruvylshikimate-3-phosphate]", "values": [{"measurement": "Kd", "setting": "CS from N. crassa", "result": 17, "unit": "µM"}]}, {"compound": "Nc1cc(S(=O)(=O)O)cc2cc(S(=O)(=O)O)c(/N=N/c3cc([N+](=O)[O-])cc(Cl)c3O)c(O)c12", "note": "[PH011669, 5-amino-3-[(E)-(3-chloro-2-hydroxy-5-nitrophenyl)diazenyl]-4-hydroxy-2,7-naphthalenedisulfonic acid]", "values": [{"measurement": "Kd", "setting": "chorismate synthase (CS) [5]", "result": "1800 ± 100", "unit": "nM"}, {"measurement": "Kd", "setting": "chorismate synthase (CS) [6]", "result": "1800 ± 100", "unit": "nM"}, {"measurement": "Kd", "setting": "chorismate synthase (CS) [7]", "result": 2700, "unit": "nM"}, {"measurement": "Kd", "setting": "chorismate synthase (CS) [8]", "result": "3.2 ± 0.1", "unit": "µM"}, {"measurement": "Kd", "setting": "PbCS [9]", "result": "3.8 ± 1.8", "unit": "µM"}, {"measurement": "Kd", "setting": "chorismate synthase (CS) [10]", "result": "4 ± 0.6", "unit": "µM"}, {"measurement": "Kd", "setting": "chorismate synthase (CS) [11]", "result": "1000 ± 100", "unit": "nM"}, {"measurement": "Kd", "setting": "chorismate synthase (CS) [12]", "result": "2400 ± 100", "unit": "nM"}, {"measurement": "Kd", "setting": "chorismate synthase (CS) [13]", "result": "4.6 ± 0.7", "unit": "µM"}, {"measurement": "Kd", "setting": "chorismate synthase (CS) [14]", "result": "4.4 ± 0.1", "unit": "µM"}, {"measurement": "higher affinity than the initial hit", "setting": "[15]; affinity to PbCS relative to initial hit (CaCS02)", "result": "ca. 20 fold"}, {"measurement": "Kd", "setting": "[15]; read-out: Kd (dissociation constant), spectrophotometric titration, PbCS", "result": 1100, "unit": "nM"}, {"measurement": "Kd", "setting": "chorismate synthase (CS) [16]", "result": "3.7 ± 1", "unit": "µM"}, {"measurement": "Kd", "setting": "chorismate synthase (CS) [17]", "result": 1500, "unit": "nM"}, {"measurement": "Kd", "setting": "chorismate synthase (CS) [18]", "result": 1700, "unit": "nM"}, {"measurement": "IC50", "setting": "PbCS [19]", "result": "10 ± 1", "unit": "µM"}, {"measurement": "Kd", "setting": "chorismate synthase (CS) [20]", "result": "3.5 ± 0.1", "unit": "µM"}, {"measurement": "Kd", "setting": "chorismate synthase (CS) [21]", "result": "3.7 ± 0.1", "unit": "µM"}]}]}
